Experimental data: patent US20250346601A1, “HETEROCYCLIC COMPOUNDS FOR THE PREVENTION AND THERAPY OF CIRCADIAN RHYTHM DISORDERS” (UNIVERZITA PALACKEHO V OLOMOUCI, priority 2022, published 2025)

How the values were obtained:
[1] = tested on: NIH3T3 line transfected with the Per2-Luc reporter; assay: Period of the circadian rhythm in NIH3T3 fibroblasts with Per2-Luc reporter (luminescence, cosinor analysis); format: cell-based, mouse; conditions: for Period length ± standard error of the mean (expressed relative to the control) at the indicated concentration: NIH3T3, DMSO control = 1.00
Method: NIH3T3 mouse embryonic fibroblasts were grown in standard DMEM with 10% fetal bovine serum. NIH3T3 cells were transfected with 1 μg of Per2-Luc reporter using GeneJuice and selected under hygromycin. The cell line was clonally expanded and a single monoclonal cell line was used for further experiments. Cells were cultured in a 96-well plate in growth medium to 90+% confluence. Test compound or vehicle (DMSO) was applied to recording medium with 100 U/ml penicillin, 100 μg/ml streptomycin, 1x GlutaMAX, 10% fetal calf serum and 0.1 mM Luciferin-EF (Promega Madison, WI, USA). Luminescence was recorded every hour for the next 144 hours. Circadian rhythm analysis was performed using cosinor analysis. Period length was expressed relative to the period of cells affected only by DMSO vehicle (their period length is therefore 1.00).

[2] = tested on: U2OS line transduced with the Bmal 1-Luc reporter; assay: Period of the circadian rhythm in U2OS cells with Bmal1-Luc reporter (luminescence, cosinor analysis); format: cell-based, Human; conditions: for Period length ± standard error of the mean (expressed relative to control) at the indicated concentration: U2OS, DMSO control = 1.00
Method: Human osteosarcoma U2OS cells were grown in standard DMEM medium with 10% fetal bovine serum. U2OS cells were transduced with lentiviral particles containing a Bmall-Luc fusion reporter and selected under Blasticidin. The cell line was clonally expanded and a single monoclonal cell line was used for further experiments. Cells were cultured in a 384-well plate in growth medium to 90+% confluence. Test compound or vehicle (DMSO) was applied to recording medium with 100 U/ml penicillin, 100 ug/ml streptomycin, 1x GlutaMAX, 10% fetal bovine serum, and 0.1 mM Luciferin-EF. Luminescence was recorded every hour for the next 144 hours. Circadian rhythm analysis was performed using cosinor analysis.
The length of the period was expressed relative to the period of cells affected only by DMSO vehicle (their period is therefore 1.00). […] The overall effect on circadian oscillations unequivocally proves that the compounds of formula I can be also used to temporally modulate the concentration and activity of not only BMAL1, but also other components of the oscillator including the critical components PER2, CRY and CLOCK in time, as these are an essential part of the mechanism generating the rhythmic expression of the luminescent reporter used. The concentration and level of other proteins, whose rhythmic expression is controlled by an oscillator in the brain and peripheral tissues (so-called clock-controlled genes), are also necessarily affected. The influence of the compounds of formula I on the activity of oscillator components and subordinate genes also means influencing the physiological processes of the cell controlled by these genes and proteins. N^6-furfuryladenine was used as a reference compound. […] The ability to shift the phase of the circadian cycle can be seen in FIG. 2.

SMILES | Period length ± standard error of the mean (expressed relative to the control) at the indicated concentration ([1]; 50 μM) | Period length ± standard error of the mean (expressed relative to control) at the indicated concentration ([2]; 20 μM) | Period length ± standard error of the mean (expressed relative to control) at the indicated concentration ([2]; 50 μM) | Period length ± standard error of the mean (expressed relative to control) at the indicated concentration ([2]; 10 μM) | also measured
c1coc(CNc2ncnc3nc[nH]c23)c1 [N^6-furfuryladenine, reference compound] | 50 μM: 1.06 ± 0.02 | 20 μM: 1.02 ± 0.01 |  |  | Effect on the period of the circadian rhythm (in words) ([1]; NIH3T3 Per2-Luc): much smaller effect; Effect on the period of the circadian rhythm (in words) ([2]; U2OS Bmal1-Luc): minimal effect
COCn1cnc2c(NCc3ccco3)ncnc21 [N-(furan-2-ylmethyl)-9-(methoxymethyl)-9H-purin-6-amine, reference compound] | 50 μM: 0.96 ± 0.02 |  | 50 μM: 1.01 ± 0.01 |  | 
CN(CCN)c1nc(NCc2ccco2)c2ncn(C3CCCC3)c2n1 [Compound 16] |  | 1.95 ± 0.14 |  | 1.26 ± 0.07 | Period length ± standard error of the mean (expressed relative to the control) at the indicated concentration ([1]; 0.83 μM): 1.05 ± 0.01; Period length ± standard error of the mean (expressed relative to the control) at the indicated concentration ([1]; 10 μM): 2.02 ± 0.06
CN(C)CCNc1nc(NCc2ccco2)c2ncn(C3CCCCO3)c2n1 (centres unmarked) [Compound 44] | 50 μM: 1.72 ± 0.04 |  |  |  | Period length ± standard error of the mean (expressed relative to control) at the indicated concentration ([2]; 1 μM): 1.05 ± 0.01; Period length ± standard error of the mean (expressed relative to control) at the indicated concentration ([2]; 5 μM): 1.28 ± 0.02
c1coc(CNc2nc(N3CCOCC3)nc3c2ncn3C2CCCC2)c1 [Compound 20] | 1.55 ± 0.03 |  |  |  | Period length ± standard error of the mean (expressed relative to the control) at the indicated concentration ([1]; 0.83 μM): 1.04 ± 0.01; Period length ± standard error of the mean (expressed relative to control) at the indicated concentration ([2]; 1 μM): 1.09 ± 0.01; Period length ± standard error of the mean (expressed relative to control) at the indicated concentration ([2]; 4 μM): 1.67 ± 0.33
CNc1nc(NCc2ccc(C)o2)c2ncn(C3CCCCO3)c2n1 (centres unmarked) [Compound 50] | 50 μM: 1.6 ± 0.02 | 1.14 ± 0.02 |  | 1.11 ± 0.01 | 
COCCCCn1cnc2c(NCc3ccco3)ncnc21 [N-(furan-2-ylmethyl)-9-(4-methoxybutyl)-9H-purin-6-amine, reference compound] | 50 μM: 0.97 ± 0.03 |  | 50 μM: 1 ± 0.01 |  | 
c1coc(CNc2ncnc3c2ncn3C2CCCC2)c1 [Compound 1] | 1.54 ± 0.01 |  |  | 10 μM: 1.19 ± 0.02 | Period length ± standard error of the mean (expressed relative to the control) at the indicated concentration ([1]; 10 μM): 1.17 ± 0.01
CC(C)OCCn1cnc2c(NCc3ccco3)ncnc21 [N-(furan-2-ylmethyl)-9-(2-isopropoxyethyl)-9H-purin-6-amine, reference compound] | 50 μM: 0.95 ± 0.02 |  | 50 μM: 1.01 ± 0.01 |  | 
CCOCn1cnc2c(NCc3ccco3)ncnc21 [9-(ethoxymethyl)-N-(furan-2-ylmethyl)-9H-purin-6-amine, reference compound] | 50 μM: 1 ± 0.03 |  | 50 μM: 1.01 ± 0.01 |  | 
OCCNc1nc(NCc2ccco2)c2ncn(C3CCCCO3)c2n1 (centres unmarked) [Compound 45, 2-({6-[(furan-2-ylmethyl)amino]-9-(tetrahydro-2H-pyran-2-yl)-9H-purin-2-yl}amino)ethan-1-ol] | 50 μM: 1.32 ± 0.01 | 20 μM: 1.04 ± 0.01 |  |  | 
COCCCn1cnc2c(NCc3ccco3)ncnc21 [N-(furan-2-ylmethyl)-9-(3-methoxypropyl)-9H-purin-6-amine, reference compound] | 50 μM: 0.93 ± 0 |  | 50 μM: 0.99 ± 0.01 |  | 
NCCNc1nc(NCc2ccco2)c2ncn(C3CCCC3)c2n1 [Compound 18] | 2.19 ± 0.35 |  |  |  | Period length ± standard error of the mean (expressed relative to the control) at the indicated concentration ([1]; 10 μM): 1.19 ± 0; Period length ± standard error of the mean (expressed relative to control) at the indicated concentration ([2]; 1 μM): 1 μM: 1.16 ± 0.03
Clc1nc(NCc2ccco2)c2ncn(C3CCCC3)c2n1 [Compound 6] |  |  |  |  | Period length ± standard error of the mean (expressed relative to the control) at the indicated concentration ([1]; 10 μM): 10 μM: 1.27 ± 0.01; Period length ± standard error of the mean (expressed relative to control) at the indicated concentration ([2]; 5 μM): 5 μM: 1.23 ± 0.03
COCCCNc1nc(NCc2ccco2)c2ncn(C3CCCCO3)c2n1 (centres unmarked) [Compound 46] | 50 μM: 1.27 ± 0.04 | 20 μM: 1.05 ± 0.01 |  |  | 
CN(C)c1nc(NCc2ccco2)c2ncn(C3CCCO3)c2n1 (centres unmarked) [Compound 23] | 1.36 ± 0.04 |  |  | 10 μM: 1.08 ± 0.01 | Period length ± standard error of the mean (expressed relative to the control) at the indicated concentration ([1]; 10 μM): 1.07 ± 0.01
Cc1ccc(CNc2nc(N(C)C)nc3c2ncn3C2CCCO2)o1 (centres unmarked) [Compound 24] | 50 μM: 1.24 ± 0.07 | 1.09 ± 0.01 |  | 1.03 ± 0 | 
CCOCCn1cnc2c(NCc3ccco3)ncnc21 [9-(2-ethoxyethyl)-N-(furan-2-ylmethyl)-9H-purin-6-amine, reference compound] | 50 μM: 0.97 ± 0.03 |  | 50 μM: 0.99 ± 0.01 |  | 
Clc1nc(NCc2ccco2)c2ncn(C3CCOCC3)c2n1 [Compound 10] |  |  |  | 10 μM: 1.09 ± 0.01 | Period length ± standard error of the mean (expressed relative to the control) at the indicated concentration ([1]; 10 μM): 10 μM: 1.14 ± 0.01
CCCNc1nc(NCc2ccco2)c2ncn(C3CCCCO3)c2n1 (centres unmarked) [Compound 35] | 50 μM: 1.38 ± 0.09 |  |  | 10 μM: 1.05 ± 0.01 | 
CC(C)(C)OCCn1cnc2c(NCc3ccco3)ncnc21 [9-[2-(tert-butoxy)ethyl]-N-(furan-2-ylmethyl)-9H-purin-6-amine, reference compound] | 50 μM: 0.9 ± 0.06 |  | 50 μM: 1 ± 0.01 |  | 
CN(C)CCNc1nc(NCc2ccco2)c2ncn(C3CCCC3)c2n1 [Compound 17] | 2.17 ± 0.1 |  |  | 10 μM: 1.48 ± 0.28 | Period length ± standard error of the mean (expressed relative to the control) at the indicated concentration ([1]; 10 μM): 1.71 ± 0.04
CNc1nc(NCc2ccco2)c2ncn(C3CCCO3)c2n1 (centres unmarked) [Compound 22] | 50 μM: 1.22 ± 0.02 |  |  | 10 μM: 1.06 ± 0 | 
CN(C)c1nc(NCc2ccco2)c2ncn(C3CCCCO3)c2n1 (centres unmarked) [Compound 34] | 50 μM: 2.3 ± 0.03 | 1.25 ± 0.03 | 50 μM: 1.73 ± 0.6 | 1.12 ± 0.01 | 
c1coc(CNc2nc(NCc3ccco3)c3ncn(C4CCCCO4)c3n2)c1 (centres unmarked) [Compound 38] | 50 μM: 1.22 ± 0.06 |  |  | 10 μM: 1.1 ± 0.02 | 
CNc1nc(NCc2ccco2)c2ncn(C3CCCCCO3)c2n1 (centres unmarked) [Compound 60] | 50 μM: 1.42 ± 0.04 | 1.15 ± 0.01 |  |  | Period length ± standard error of the mean (expressed relative to control) at the indicated concentration ([2]; 5 μM): 1.04 ± 0
